Experiments:
[1] = test system: Nalm6 cells; experiment: Serial killing assay, T-cell (CD4, CD8) and Nalm6 cell counts by flow cytometry; type: cell-based, human; conditions: for persistence of T-cells (CD4 and CD8 counts) / serial killing assessed by Nalm6 cells (flow cytometry): E:T ratio of 1:1, dose titration; for impact on T-cell counts and Nalm6 cell counts: E:T ratio of 1:3, dose titration
Method: T-cell counts (CD4 and CD8) were assessed by flow cytometry.
Nalm6 cells were assessed by flow cytometry.
T-cell counts (CD4 and CD8) and Nalm6 cells were assessed by flow cytometry.

[2] = biological target: JAK1 (Homo sapiens, UniProt P23458); experiment: JAK kinase inhibition biochemical assay (Kinase-Glo Plus luminescence), JAK1; conditions: for IC50: 10 μM ATP
Sequence of JAK1 (P23458 whole entry): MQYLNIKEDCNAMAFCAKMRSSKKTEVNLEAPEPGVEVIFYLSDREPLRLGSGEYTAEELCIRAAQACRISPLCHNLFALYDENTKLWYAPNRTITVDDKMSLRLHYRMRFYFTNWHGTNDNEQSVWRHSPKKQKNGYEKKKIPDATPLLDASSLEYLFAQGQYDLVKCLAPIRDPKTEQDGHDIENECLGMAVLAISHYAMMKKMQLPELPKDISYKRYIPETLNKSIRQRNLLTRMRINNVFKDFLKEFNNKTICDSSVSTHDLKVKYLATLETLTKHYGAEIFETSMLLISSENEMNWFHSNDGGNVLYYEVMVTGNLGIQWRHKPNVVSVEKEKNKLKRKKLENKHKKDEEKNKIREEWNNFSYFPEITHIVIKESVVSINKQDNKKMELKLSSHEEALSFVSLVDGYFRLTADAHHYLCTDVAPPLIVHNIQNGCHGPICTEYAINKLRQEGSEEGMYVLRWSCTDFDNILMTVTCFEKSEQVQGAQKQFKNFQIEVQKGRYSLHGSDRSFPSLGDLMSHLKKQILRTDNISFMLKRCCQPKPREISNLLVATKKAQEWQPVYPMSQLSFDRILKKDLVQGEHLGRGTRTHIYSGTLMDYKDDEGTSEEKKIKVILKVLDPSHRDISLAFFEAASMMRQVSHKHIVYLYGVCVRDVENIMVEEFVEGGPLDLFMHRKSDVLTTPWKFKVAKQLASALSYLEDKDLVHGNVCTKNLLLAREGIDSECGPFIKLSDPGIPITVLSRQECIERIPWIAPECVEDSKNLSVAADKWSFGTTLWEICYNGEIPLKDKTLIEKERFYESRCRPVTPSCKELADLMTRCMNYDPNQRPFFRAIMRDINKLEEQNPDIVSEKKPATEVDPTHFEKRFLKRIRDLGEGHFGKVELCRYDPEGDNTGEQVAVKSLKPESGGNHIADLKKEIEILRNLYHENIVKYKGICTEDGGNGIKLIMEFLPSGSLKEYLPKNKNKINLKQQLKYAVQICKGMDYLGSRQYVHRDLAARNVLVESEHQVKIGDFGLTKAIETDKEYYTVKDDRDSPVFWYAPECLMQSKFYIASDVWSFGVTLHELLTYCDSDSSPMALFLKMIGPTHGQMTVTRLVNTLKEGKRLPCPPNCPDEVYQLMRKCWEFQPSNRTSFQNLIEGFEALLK
Method: JAK kinase inhibition in vitro biochemical assays were performed using Kinase-Glo Plus luminescence kinase assay kit (Promega). Kinase activity was measured by quantitating the amount of ATP remaining in solution following a kinase reaction. Luminescent signal from the assay was correlated with the amount of ATP present and was inversely correlated with the amount of kinase activity. Compounds were diluted in 10% DMSO and 5 μl of the dilution were added to a 50 μl reaction so that the final concentration of DMSO was 1% in all of the reactions. […] All enzymatic reactions were conducted at 30° C. for 45 minutes. The 50 μl reaction mixture contained 40 mM Tris, pH 7.4, 10 mM MgCl2, 0.1 mg/ml BSA, 1 mM DTT, 10 μM ATP, Kinase substrate and the enzyme. After the enzymatic reaction, 50 μl of Kinase-Glo Plus Luminescence kinase assay solution (Promega) were added to each reaction and incubated in the plate for 15 minutes at room temperature. Luminescence signal was measured using a Bio-Tek Synergy 2 microplate reader. Kinase activity was performed in duplicate at each concentration and data were analyzed using Graphpad Prism. The difference between luminescence intensities in the absence of Kinase (Lut) and in the presence of Kinase (Luc) was defined as 100% activity (Lut−Luc). Using luminescence signal (Lu) in the presence of the compound, % activity was calculated as: % activity={Lut−Lu)/(Lut−Luc)}×100%, where Lu=the luminescence intensity in the presence of compound.

[3] = Clinical pharmacokinetic data converted to in vitro concentrations; conditions: human, in vivo
Source text: Given the different potencies of the JAK inhibitors and different pharmacokinetic properties for each drug, it was sought to test each drug at a relevant range of physiological concentrations based on clinical dosing and reported pharmacokinetic data from repeat dose studies. Reported Cmax values in patient sera were converted to in vitro concentrations and adjusted for reported plasma protein binding.

[4] = test system: phospho-STAT-1, -3 and -5 in purified CD14+ monocytes; experiment: Intracellular phospho-STAT-1, -3, -5 by BD PhosphoFlow in purified monocytes; type: cell-based, human; conditions: for pSTAT1 inhibition / pSTAT3 inhibition: purified monocytes, CAR T derived cytokines/supernatant stimulation
Method: Further experiments were performed to look at impacts of JAK inhibitors on STAT phosphorylation in various immune cell subsets.

[5] = in vitro; conditions: human
[6] = test system: phospho-STAT panel (pSTAT3/4/5), CD3+ T cells; experiment: phospho-STAT induction by IL-6, MesoScale Discovery phospho-STAT panel; type: cell-based, human; conditions: for pSTAT3 / pSTAT4 / pSTAT5: CD3+ T cells
Outline: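 CD19 CAR-T cells, PBMC or CD3+ T cells, rested overnight, were stimulated at 700,000 cells/well with 100 ng/ml IL6 plus compound for 20 minutes at 37° C. Cells were lysed in Tris buffer and pSTAT3/4/5 measured by MSD electrochemiluminescence immunoassay.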

[7] = test system: Nalm-6 luc; experiment: CAR-T cell killing assay (luciferase viability of tumor cells)
[8] = purified CD14+ monocytes, CAR T cell-derived supernatant, 30 min
[9] = purified CD14+ monocytes, rh-GM-CSF-induced
[10] = purified CD14+ monocytes, rhIFNg-induced
[11] = purified CD14+ monocytes, rhIL6-induced

## Nc1nc2cccc(-c3ccc(CN4CCS(=O)(=O)CC4)cc3)n2n1 [GS-829845]
[1]
  persistence of T-cells (CD4 and CD8 counts): Improved persistence
  serial killing assessed by Nalm6 cells (flow cytometry): enhance serial killing in a dose-dependent manner
  impact on T-cell counts and Nalm6 cell counts: not impacted
[2]
  less potency than parent compound filgotinib: about 10 fold
  IC50: 448 nM
[3]
  clinically relevant dose level (in vitro concentration): ~4 µM
[4]; [8]
  Monocyte-specific pSTAT1 signaling, inhibition: 32%
  Monocyte-specific pSTAT3 signaling, inhibition: 80%
  Monocyte-specific pSTAT5 signaling, inhibition: 3%
[4]; [9]
  Monocyte-specific pSTAT1 signaling, inhibition: na/ni
  Monocyte-specific pSTAT3 signaling, inhibition: na/ni
  Monocyte-specific pSTAT5 signaling, inhibition: 0%
[4]; [10]
  Monocyte-specific pSTAT1 signaling, inhibition: 61%
  Monocyte-specific pSTAT3 signaling, inhibition: 100%
  Monocyte-specific pSTAT5 signaling, inhibition: 100%
[4]; [11]
  Monocyte-specific pSTAT1 signaling, inhibition: na/ni
  Monocyte-specific pSTAT3 signaling, inhibition: 33%
  Monocyte-specific pSTAT5 signaling, inhibition: na/ni
[4]; 30 min
  pSTAT1 inhibition: 32%
  pSTAT3 inhibition: 80%

## O=C(Nc1nc2cccc(-c3ccc(CN4CCS(=O)(=O)CC4)cc3)n2n1)C1CC1 [filgotinib]
[1]
  persistence of T-cells (CD4 and CD8 counts): Improved persistence
  serial killing assessed by Nalm6 cells (flow cytometry): enhance serial killing in a dose-dependent manner
  impact on T-cell counts and Nalm6 cell counts: not impacted
[5]
  viability at 0 day, 500 nM: 75%
  viability at 0 day, 1000 nM: 75%
  viability at 4 day, 500 nM: 61.1%
  viability at 4 day, 1000 nM: 59.9%
  viability at 8 day, 500 nM: 78.9%
  viability at 8 day, 1000 nM: 85.1%
  viability at 12 day, 500 nM: 91.8%
  viability at 12 day, 1000 nM: 87.7%
[3]
  PPB adj. in Vitro concentration: 1.28 µM
  clinically relevant dose level (in vitro concentration): ~1 µM
[6]; 100 ng/ml IL-6 + drug 10 uM, 20 min, MSD signal (No stim. 689, IL-6 alone 33641)
  pSTAT3: 2169
[6]; 100 ng/ml IL-6 + drug 10 uM, 20 min, MSD signal (No stim. 1964, IL-6 alone 15405)
  pSTAT4: 2121
[6]; 100 ng/ml IL-6 + drug 10 uM, 20 min, MSD signal (No stim. 9210, IL-6 alone 17743)
  pSTAT5: 1610
[6]; IL-6 + drug 0.125 uM, MSD signal (No stim. 689, IL-6 alone 33641)
  pSTAT3: 23255
[6]; IL-6 + drug 0.125 uM, MSD signal (No stim. 1964, IL-6 alone 15405)
  pSTAT4: 9977
[6]; IL-6 + drug 0.125 uM, MSD signal (No stim. 9210, IL-6 alone 17743)
  pSTAT5: 10484
[6]; IL-6 + drug 0.5 uM, MSD signal (No stim. 689, IL-6 alone 33641)
  pSTAT3: 15242
[6]; IL-6 + drug 0.5 uM, MSD signal (No stim. 1964, IL-6 alone 15405)
  pSTAT4: 5570
[6]; IL-6 + drug 0.5 uM, MSD signal (No stim. 9210, IL-6 alone 17743)
  pSTAT5: 5170
[6]; IL-6 + drug 1 uM, MSD signal (No stim. 689, IL-6 alone 33641)
  pSTAT3: 11163
[6]; IL-6 + drug 1 uM, MSD signal (No stim. 1964, IL-6 alone 15405)
  pSTAT4: 4642
[6]; IL-6 + drug 1 uM, MSD signal (No stim. 9210, IL-6 alone 17743)
  pSTAT5: 3679
[6]; IL-6 + drug 5 uM, MSD signal (No stim. 689, IL-6 alone 33641)
  pSTAT3: 2667
[6]; IL-6 + drug 5 uM, MSD signal (No stim. 1964, IL-6 alone 15405)
  pSTAT4: 2172
[6]; IL-6 + drug 5 uM, MSD signal (No stim. 9210, IL-6 alone 17743)
  pSTAT5: 1797
[6]; IL-6 stimulation 100 ng/ml, 20 minutes, 10 μM to 0.125 μM
  effect on phosphorylated-STAT-1, STAT-3 and STAT-5 levels: reduction of phosphorylated-STAT-1, STAT-3 and STAT-5 levels in a dose-responsive manner
[6]; lower dose titration, IL-6 + drug 3.125 nM, MSD signal (No stim. 123, IL-6 alone 5767)
  pSTAT3: 4968
[6]; lower dose titration, IL-6 + drug 3.125 nM, MSD signal (No stim. 281, IL-6 alone 3624)
  pSTAT4: 3059
[6]; lower dose titration, IL-6 + drug 3.125 nM, MSD signal (No stim. 324, IL-6 alone 2352)
  pSTAT5: 2812
[6]; lower dose titration, IL-6 + drug 6.25 nM, MSD signal (No stim. 123, IL-6 alone 5767)
  pSTAT3: 6740
[6]; lower dose titration, IL-6 + drug 6.25 nM, MSD signal (No stim. 281, IL-6 alone 3624)
  pSTAT4: 4324
[6]; lower dose titration, IL-6 + drug 6.25 nM, MSD signal (No stim. 324, IL-6 alone 2352)
  pSTAT5: 2724
[6]; lower dose titration, IL-6 + drug 12.5 nM, MSD signal (No stim. 123, IL-6 alone 5767)
  pSTAT3: 6547
[6]; lower dose titration, IL-6 + drug 12.5 nM, MSD signal (No stim. 281, IL-6 alone 3624)
  pSTAT4: 3479
[6]; lower dose titration, IL-6 + drug 12.5 nM, MSD signal (No stim. 324, IL-6 alone 2352)
  pSTAT5: 2253
[6]; lower dose titration, IL-6 + drug 25 nM, MSD signal (No stim. 123, IL-6 alone 5767)
  pSTAT3: 5737
[6]; lower dose titration, IL-6 + drug 25 nM, MSD signal (No stim. 281, IL-6 alone 3624)
  pSTAT4: 3452
[6]; lower dose titration, IL-6 + drug 25 nM, MSD signal (No stim. 324, IL-6 alone 2352)
  pSTAT5: 2020
[6]; lower dose titration, IL-6 + drug 50 nM, MSD signal (No stim. 123, IL-6 alone 5767)
  pSTAT3: 6248
[6]; lower dose titration, IL-6 + drug 50 nM, MSD signal (No stim. 281, IL-6 alone 3624)
  pSTAT4: 3208
[6]; lower dose titration, IL-6 + drug 50 nM, MSD signal (No stim. 324, IL-6 alone 2352)
  pSTAT5: 1951
[6]; lower dose titration, IL-6 + drug 100 nM, MSD signal (No stim. 123, IL-6 alone 5767)
  pSTAT3: 5441
[6]; lower dose titration, IL-6 + drug 100 nM, MSD signal (No stim. 281, IL-6 alone 3624)
  pSTAT4: 2047
[6]; lower dose titration, IL-6 + drug 100 nM, MSD signal (No stim. 324, IL-6 alone 2352)
  pSTAT5: 1246
[7]; E:T ratio 1:1, dose 250 nM
  Mean tumor cell death (%): 96.89%
[7]; E:T ratio 1:1, dose 500 nM
  Mean tumor cell death (%): 97.54%
[7]; E:T ratio 1:1, dose 1000 nM
  Mean tumor cell death (%): 92.04%
[7]; E:T ratio 1:3, dose 250 nM
  Mean tumor cell death (%): 55.79%
[7]; E:T ratio 1:3, dose 500 nM
  Mean tumor cell death (%): 48.50%
[7]; E:T ratio 1:3, dose 1000 nM
  Mean tumor cell death (%): 35.36%
[7]; E:T ratio 1:9, dose 250 nM
  Mean tumor cell death (%): 20.47%
[7]; E:T ratio 1:9, dose 500 nM
  Mean tumor cell death (%): 14.82%
[7]; E:T ratio 1:9, dose 1000 nM
  Mean tumor cell death (%): 9.49%
[4]
  IFN-gamma induction of pSTAT-1, 3 and 5: strongly suppressed
[4]; purified CD14+ monocytes
  pSTAT-5 induction by GM-CSF: not inhibited
[4]; [8]
  Monocyte-specific pSTAT1 signaling, inhibition: 91%
  Monocyte-specific pSTAT3 signaling, inhibition: 100%
  Monocyte-specific pSTAT5 signaling, inhibition: 0%
[4]; [9]
  Monocyte-specific pSTAT1 signaling, inhibition: na/ni
  Monocyte-specific pSTAT3 signaling, inhibition: na/ni
  Monocyte-specific pSTAT5 signaling, inhibition: 0%
[4]; [10]
  Monocyte-specific pSTAT1 signaling, inhibition: 100%
  Monocyte-specific pSTAT3 signaling, inhibition: 100%
  Monocyte-specific pSTAT5 signaling, inhibition: 98%
[4]; [11]
  Monocyte-specific pSTAT1 signaling, inhibition: na/ni
  Monocyte-specific pSTAT3 signaling, inhibition: 51%
  Monocyte-specific pSTAT5 signaling, inhibition: na/ni
[4]; purified monocytes stimulated by IL-6
  pSTAT-3 inhibition: 51%
[4]; 30 min
  pSTAT1 inhibition: 91%
  pSTAT3 inhibition: 100%

## N#CCC1(n2cc(-c3ncnc4[nH]ccc34)cn2)CN(C2CCN(C(=O)c3ccnc(C(F)(F)F)c3F)CC2)C1 [itacitinib]
[2]
  IC50: 13 nM
